Assay [1] deals with T1, TmTrpRS (TM0492) (Thermotoga maritima, UniProt Q9WYW2).
T1 construct: gene trpS; full-length with noncleavable N-terminal tag MGSDKIHHHHHH (kept in crystal), expressed in E. coli DL41; native TTG start codon lies in forward primer after the tag; model residues 0-328, 113-119 disordered; homodimer
T1 sequence (Q9WYW2 1-328): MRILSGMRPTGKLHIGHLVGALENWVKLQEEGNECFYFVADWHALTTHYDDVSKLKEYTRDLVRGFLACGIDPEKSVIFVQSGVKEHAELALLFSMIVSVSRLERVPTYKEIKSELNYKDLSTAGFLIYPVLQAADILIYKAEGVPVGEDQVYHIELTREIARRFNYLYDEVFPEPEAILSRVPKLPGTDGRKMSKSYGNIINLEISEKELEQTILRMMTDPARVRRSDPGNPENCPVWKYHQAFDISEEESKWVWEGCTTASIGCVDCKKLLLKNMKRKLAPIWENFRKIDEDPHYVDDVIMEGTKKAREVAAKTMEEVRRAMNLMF
Nature of the assay: X-ray crystal structure, […] Å. Type of assay: binding. The settings on record: active site (Rossmann-fold domain); endogenously bound, not added; crystallised at pH 6.5, 277 K.

The target of assay [2] is T1, TmTrpRS (TM0492). Briefly: X-ray crystal structure, […] Å; X-ray fluorescence scan; mass spectrometry. The settings on record: TAB domain; chelated by Cys236, Cys259, Cys266, Cys269; co-purified; crystallised at pH 6.5, 277 K. Type of assay: binding.

Results on 2 compounds are retold here after publication PMC2954223, “Structure of a tryptophanyl-tRNA synthetase containing an iron–sulfur cluster” (Acta Crystallographica Section F: Structural Biology and …, 2010).

As for `N[C@@H](Cc1c[nH]c2ccccc12)C(=O)O` [L-tryptophan], the “X-ray crystal structure, 2.50 Å” value at TmTrpRS (TM0492) [1] was “the structure revealed a bound L-tryptophan molecule in the Trp-binding pocket of the active site”. As for `[S]12[Fe]3[S]4[Fe]1[S]1[Fe]2[S]3[Fe]41` [[4Fe–4S] cluster], the “X-ray crystal structure, 2.50 Å; X-ray fluorescence scan; mass spectrometry” value at TmTrpRS (TM0492) [2] was “The [4Fe–4S] cluster is chelated by the side chains of Cys236, Cys259, Cys266 and Cys269”.
